Data taken from patent US20120225909A1, “INDAZOLE ANALOG” (priority 2009, published 2012).
Where two headings read alike, the source gives them in different places.

Key:
[1] = target: T1, human β3-adrenergic receptor (Homo sapiens, UniProt P13945); assay: Test Case 1-B: human β3-adrenergic receptor agonist activity (cAMP-Screen, 96-well); format: cell-based
T1 construct: A full-length human β3 gene is obtained from a human genomic library (made by Clontech) using this as the probe; expressed in transfected cells; host or cells: CHO (Chinese hamster ovary) cells, pcDNA3
Summary of the method: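 CHO cells stably transfected with full-length human β3 gene, serum-starved 15 min, then exposed to serially diluted compound in Ham's F-12 with 100 mmol/L HEPES and 1 mmol/L IBMX (diluent concentrations) for 30 min. Cells lysed 30 min at 37 °C; cAMP quantified by cAMP-Screen immunoassay.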

[2] = target: T2, human β2-adrenergic receptor (Homo sapiens, UniProt P07550); assay: Test Case 3-B: human β2-adrenergic receptor agonist activity; format: cell-based; settings: read-out: β2 receptor I.A.
T2 construct: expressed in transfected cells; host or cells: CHO (Chinese hamster ovary) cells, pcDNA3
Protocol: Measurement of Human β2-Adrenergic Receptor Agonist Activity
The human β2-adrenergic receptor agonist activity is measured by the same method as in Test Case 1-B using CHO (Chinese hamster ovary) cells transfected by a human β2 gene inserted in pcDNA3 (Invitrogen).

[3] = 0.5 h; read-out: β3 receptor I.A.

T1 sequence (P13945 whole entry): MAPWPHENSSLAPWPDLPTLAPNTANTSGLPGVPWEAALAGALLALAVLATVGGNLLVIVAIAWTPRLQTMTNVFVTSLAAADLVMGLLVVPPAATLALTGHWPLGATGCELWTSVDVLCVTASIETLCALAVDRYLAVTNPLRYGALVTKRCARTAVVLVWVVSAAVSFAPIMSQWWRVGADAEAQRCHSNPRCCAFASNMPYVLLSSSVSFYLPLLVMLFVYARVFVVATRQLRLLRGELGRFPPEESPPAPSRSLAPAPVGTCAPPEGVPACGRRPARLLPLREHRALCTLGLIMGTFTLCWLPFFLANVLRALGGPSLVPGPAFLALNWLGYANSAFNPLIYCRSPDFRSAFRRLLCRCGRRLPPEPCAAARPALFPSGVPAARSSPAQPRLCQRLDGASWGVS
T2 sequence (P07550 whole entry): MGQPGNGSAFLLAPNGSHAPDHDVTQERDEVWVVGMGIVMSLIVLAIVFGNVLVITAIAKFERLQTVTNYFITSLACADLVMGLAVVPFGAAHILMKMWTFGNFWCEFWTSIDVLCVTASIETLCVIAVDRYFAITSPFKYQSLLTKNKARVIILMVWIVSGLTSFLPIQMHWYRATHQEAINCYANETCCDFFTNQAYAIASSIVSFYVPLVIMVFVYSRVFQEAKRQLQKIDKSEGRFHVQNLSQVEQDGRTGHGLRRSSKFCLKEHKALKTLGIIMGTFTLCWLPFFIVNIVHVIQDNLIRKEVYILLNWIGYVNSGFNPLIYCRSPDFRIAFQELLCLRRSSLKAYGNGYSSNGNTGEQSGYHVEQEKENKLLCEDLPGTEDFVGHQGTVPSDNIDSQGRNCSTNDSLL

Row | Structure (SMILES) | Emax [1, 3] [%] | EC50 ([1]; Test Case 1-B; CHO cells, cAMP) [nM] | Emax [2] [%] | Emax ([1]; 0.5 h, read-out: β3 receptor I.A.) [%]
1 | O=S(=O)(Nc1cccc([C@@H](O)CNCCOc2ccc3c(OC(F)F)n[nH]c3c2)c1)C1CC1 [ex4, (R)—N-(3-(2-(2-(3-(difluoromethoxy)-indazol-6-yloxy)ethylamino)-1-hydroxyethyl)phenyl)cyclopropanesulfonamide] | 77 | 38 | 1 | 
2 | Cc1n[nH]c2cc(OCCNC[C@H](O)c3cccc(NS(=O)(=O)c4ccccc4F)c3)ccc12 [ex235, (R)-2-fluoro-N-(3-(1-hydroxy-2-(2-(3-methylindazol-6-yloxy)ethylamino)ethyl)phenyl)benzenesulfonamide] | 113 | 28 | 2 | 
3 | Cc1n[nH]c2cc(OCCNC[C@H](O)c3cccc(NS(=O)(=O)C4CCC4)c3)ccc12 [ex3, (R)—N-(3-(1-hydroxy-2-(2-(3-methylindazol-6-yloxy)ethylamino)ethyl)phenyl)cyclobutanesulfonamide] |  | 17 | 1 | 105
